Assay [1] deals with human colon NR-(wild-type) line WIDR. Description: Cytotoxicity in untransfected control cells (NR-), nitroreductase activation test. The class given is cell-based. Particulars: IC50, unit inferred, read-out: Human colon lines NR-. The source says:
(§1) Compounds of the invention were further tested against human cell lines (NR+ in Table 3) transfected with a gene encoding a bacterial nitroreductase (NR) enzyme to test for activation of compounds of the invention with NR. Untransfected control cells (NR- in Table 3) were used as controls. The cells used were the human colon NR-(wild-type) line WIDR and its transfected NR+ counterpart WC14.10; and the human ovarian NR- (wild-type) line SKOV3 together with its NR+ (transfected) counterpart SC3.2. The results are shown in Table 3, which also indicates the ratios of IC50s. These are intra-experiment values, and may differ slightly from those calculated from the given NR- and NR+ values.

Assay [2] relates to human ovarian NR- (wild-type) line SKOV3. Described as above. The class given is cell-based. Particulars: SK-OV-3, IC50, unit inferred, read-out: Human ovarian lines NR-.
Source text: as §1

A further assay deals with SC3.2. Briefly: Cytotoxicity in cells transfected with bacterial nitroreductase (NR+). The class given is cell-based. Particulars: Homo sapiens, SK-OV-3; SC3.2 (NR+ transfected counterpart of SKOV3); IC50, unit inferred; read-out: Human ovarian lines NR+.
Source text: as §1

A further assay concerns WC14.10. The description is as above. The class given is cell-based. Particulars: Homo sapiens; WC14.10 (NR+ transfected counterpart of WIDR); IC50, unit inferred; read-out: Human colon lines NR+.
Source text: as §1

For assay [3] the following is noted: background statement, test system not given; cited from earlier work.

As for `CN(C)CCOc1ccc2[nH]c(C(=O)N3CC(CCl)c4c3cc([N+](=O)[O-])c3ccccc43)cc2c1` (centres unmarked) [14e, 1-(chloromethyl)-3-[[5-[2-(dimethylamino)-ethoxy]indol-2-yl]carbonyl] -5-nitro-1,2-dihydro-3H-benz [e] indole], the IC50 in assay [1] was determined as 370 nM; in assay [2], 1000 nM; in the assay on SC3.2 it was 90 nM; in the assay on WC14.10 it was 130 nM.

Take `CCCC(=O)Nc1cc(/C=C/C(=O)N2CC(CCl)c3c2cc([N+](=O)[O-])c2ccccc32)n(C)c1` (centres unmarked) [14i, 3-[(E)-4-(butyrylamino)-1-methyl-2-pyrroleacryloyl]-1-(chloromethyl)-5-nitro-1,2-dihydro-3H-benz [e] indole]: the IC50 in assay [1] is 2200 nM; in assay [2], 4300 nM; with SC3.2, 390 nM; in the assay on WC14.10, 600 nM.

Consider `COc1cccc(/C=C/C(=O)N2CC(CCl)c3c2cc([N+](=O)[O-])c2ccccc32)c1` (centres unmarked) [14l, 1-(chloromethyl)-3-[(E)-3-methoxycinnamoyl]-5-nitro-1,2-dihydro-3H-benz[e]iadole], for which the IC50 was 140 nM in assay [1], 130 nM in assay [2], 40 nM in the assay with SC3.2 and 80 nM with WC14.10.

With `COc1cc2cc(C(=O)N3CC(COS(C)(=O)=O)c4c3cc([N+](=O)[O-])c3ccccc43)[nH]c2c(OC)c1OC` (centres unmarked) [14o, 1-[(methanesulfonyloxy)methyl]-5-nitro-3-[(5,6,7-trimethoxyindol-2-yl)carbonyl]-1,2-dihydro-3H-benz[e]indole], the IC50 in assay [1] was found to be 410 nM; in assay [2] it was 410 nM; with SC3.2, 50 nM; in the assay with WC14.10, 60 nM.

As for `COc1cc2cc(C(=O)N3CC(CCl)c4c3cc(NC(=O)OCc3ccc([N+](=O)[O-])cc3)c3ccccc43)[nH]c2c(OC)c1OC` (centres unmarked) [15r, 1-(chloromethyl)-5-[(4-nitrobenzyloxycarbonyl)amino]-3-[(5,6,7-trimethoxyindol-2-yl)carbonyl]-1,2 - dihydro-3H-benz[e] indole], the IC50 in assay [1] is 390 nM; in assay [2] it was 62 nM; with SC3.2, 5.4 nM; with WC14.10, 12 nM.

Regarding `COC(=O)c1cc2c3c(cc(NC(=O)OCc4ccc([N+](=O)[O-])cc4)c2[nH]1)N(C(=O)c1cc2cc(OC)c(OC)c(OC)c2[nH]1)CC3CCl` (centres unmarked) [32d, methyl 1-(chloromethyl) -5-[(4-nitrobenzyloxycarbonyl) -amino] -3-[(5,6,7-trimethoxyindol-2-yl)carbonyl]-1,2-dihydro-3H-pyrrolo[3,2-e]indole-7-carboxylate], the IC50 in assay [1] worked out at 490 nM; in assay [2], 1100 nM; with SC3.2, 270 nM; with WC14.10 it was 260 nM.

As for `COc1c(O)c2c(c3cc(C(=O)N4CCc5c4c(O)c(OC)c4[nH]c(C(=O)N6CC7CC78C6=CC(=O)c6[nH]cc(C)c68)cc54)[nH]c13)CCN2C(N)=O` (centres unmarked) [CC-1065], in assay [3], the “IC50's” value was “low pM range”.

For the compound `COC(=O)c1cc2c3c(cc([N+](=O)[O-])c2[nH]1)N(C(=O)c1cc2cc(OC)c(OC)c(OC)c2[nH]1)CC3CCl` (centres unmarked) [compound 31, methyl 1-(chloromethyl)-5-nitro-3-[(5,6,7-trimethoxyindol-2-yl)carbonyl]-1,2-dihydro-3H-pyrrolo[3,2-e]indole-7-carboxylate], the IC50 in assay [1] was 400 nM; in assay [2] it was 60 nM; in the assay with SC3.2 it was 5 nM; in the assay on WC14.10, 10 nM.

The values above are taken from patent publication EP0938474B1, “CYCLOPROPYLINDOLE COMPOUNDS AND THEIR USE AS PRODRUGS” (AUCKLAND UNISERVICES LIMITED, priority 1996, dated 1998).
